In BindingDB's records for doi:10.1021/jm00083a002 (Ici Pharmaceuticals Group, 1992):
pIC50: −log10 of the molar value.

Target: Prolyl 4-hydroxylase (Gallus gallus)
Assay: ChEBML_157453
Excerpt: Inhibition of prolyl 4-hydroxylase activity by an indirect assay

`O=C(Nc1ccccc1F)c1ccc(C(=O)O)nc1` and `O=C(Nc1ccccc1Cl)c1ccc(C(=O)O)nc1` are within 0.2 log units of each other in pIC50: 4.96 for the first, 4.79 for the second.

Going from `CCOc1ccccc1NC(=O)c1ccc(C(=O)O)nc1` to `COc1ccccc1NC(=O)c1ccc(C(=O)O)nc1`, the pIC50 rises from 4.48 to 4.83 (0.35 log units). The second is the more potent here.

Going from `O=C(Nc1cccc(Cl)c1)c1ccc(C(=O)O)nc1` to `O=C(Nc1ccc(Cl)cc1)c1ccc(C(=O)O)nc1`, the pIC50 rises from 4.49 to 4.76 (0.27 log units). The second is the more potent here.

First: CN(C)c1ccc(C(=O)Nc2ccc(C(=O)O)nc2)cc1
Second: CN(C)c1ccc(NC(=O)c2ccc(C(=O)O)nc2)cc1
The pIC50 of the first is 0.44 log units lower: 4.95 for the first, 5.39 for the second.

First: COc1cc(NC(=O)c2ccc(C(=O)O)nc2)cc(OC)c1OC
Second: COc1ccc(NC(=O)c2ccc(C(=O)O)nc2)c(OC)c1
The pIC50 of the first is 0.20 log units lower: 4.58 for the first, 4.78 for the second.

Compared with `O=C(Nc1ccc([N+](=O)[O-])cc1)c1ccc(C(=O)O)nc1`, `O=C(Nc1ccc(F)cc1)c1ccc(C(=O)O)nc1` is 0.43 log units higher in pIC50: 4.36 for the first, 4.79 for the second.

First: O=C(O)c1ccc(NCc2ccc(F)cc2)cn1
Second: O=C(Nc1ccc(C(=O)O)nc1)c1ccc(F)cc1
The pIC50 of the first is 0.22 log units higher: 4.51 for the first, 4.29 for the second.

First: O=C(O)c1ccc(/C=C/c2ccc(Cl)cc2)cn1
Second: O=C(Nc1ccc(C(=O)O)nc1)c1ccc(Cl)cc1
The pIC50 of the first is 0.83 log units lower: 3.82 for the first, 4.65 for the second.

`O=C(O)c1ccc(NC(=O)c2ccccc2F)cn1` and `O=C(Nc1ccc(C(=O)O)nc1)c1ccccc1` are within 0.2 log units of each other in pIC50: 4.47 for the first, 4.59 for the second.

First: CCOc1ccc(C(=O)Nc2ccc(C(=O)O)nc2)cc1
Second: CCOc1ccc(NC(=O)c2ccc(C(=O)O)nc2)cc1
The pIC50 of the first is 0.35 log units lower: 4.95 for the first, 5.30 for the second.

`O=C(O)c1ccc(OCc2ccccc2)cn1` and `O=C(Nc1ccccc1)c1ccc(C(=O)O)nc1` are within 0.2 log units of each other in pIC50: 4.41 for the first, 4.58 for the second.

Compared with `Cc1ccc(C(=O)Nc2ccc(C(=O)O)nc2)cc1`, `Cc1ccc(NC(=O)c2ccc(C(=O)O)nc2)cc1` is 0.30 log units higher in pIC50: 4.78 for the first, 5.08 for the second.

For `COc1ccc(NC(=O)c2ccc(C(=O)O)nc2)cc1`, the pIC50 was 4.68.

Target: prolyl 4-hydroxylase (Gallus gallus)
Assay: Compound was evaluated for inhibition of Prolyl 4-hydroxylase activity in cultured embryonic chick tendon cells

`O=C(O)c1ccc(NCc2ccc(F)cc2)cn1` gave a pIC50 of 4.10.
